We go through four compounds from patent US7271195B2, “Carbonyl compounds as inhibitors of histone deacetylase for the treatment of disease” (Kalypsys, Inc., priority 2003, dated 2007).

Read-outs that look alike come from different tables or passages of the source.

Assay [1] concerns HDAC. The following applies: published value for positive control; read-out: published in vitro IC50; cited from earlier work.
In assay [2] the test system is HDAC in cells (cellular histone acetylation levels). Kind of assay: Cellular histone hyperacetylation assay (cytoblot), cellular HDAC inhibition. The format is cell-based. The following applies: for IC50: "active" = inhibitory activity but cellular IC50 could not be determined; for Emax: read-out: % Max. Inhibition (cellular). How it is done: Cellular Histone Hyperacetylation Assays:
These two secondary assays evaluates a compound's ability to inhibit HDAC in cells by measuring cellular histone acetylation levels. The cytoblot facilitates quantitative EC50 information for cellular HDAC inhibition. Transformed cell lines (e.g. HeLa, A549, MCF-7) are cultured under standard media and culture conditions prior to plating.
Cells (approx. 2,500/well) are allowed to adhere 10-24 hours to wells of a 384-well Greiner PS assay plate in media containing 1-5% serum. Cells are treated with appropriate compound and specific concentrations for 0 to 24 hours. Cells are washed once with PBS (60 ul) and then fixed (95% ethanol, 5% acetic acid or 2% PFA) for 1 minute at RT (30 ul). Cells are blocked with 1% BSA for 1 hour and washed and stained with antibody (e.g. anti-Acetylated Histone H3, Upstate Biotechnology), followed by washing and incubation with an appropriate secondary antibody conjugated to HRP or fluorophore. For luminescence assays, signal is generated using Luminol substrate (Santa Cruz Biotechnology) and detected using an Aquest plate reader (Molecular Devices).

In assay [3] the test system is T1, HDAC.
T1 construct: in vitro IC50; other: in vitro HDAC enzyme source
Put plainly: In vitro HDAC-inhibition assay (Fluor de Lys fluorescent substrate). Conditions: for IC50: in vitro HDAC enzyme source; for % Max Inhibition (in vitro): maximum inhibition. The assay is classed as biochemical. How it is done:
In vitro HDAC-inhibition Assay:
This assay measures a compound's ability to inhibit acetyl-lysine deacetylation in vitro and was used as both a primary screening method as well as for IC50 determinations of confirmed inhibitors. The assay is performed in vitro using an HDAC enzyme source (e.g. partially purified nuclear extract or immunopurified HDAC complexes) and a proprietary fluorescent substrate/developer system (HDAC Quantizyme Fluor de Lys Fluorescent Activity Assay, BIOMOL). The assay is run in 1,536-well Greiner white-bottom plates using the following volumes and order of addition:
Step 1: Enzyme (2.5 ul) source added to plate (from refrigerated container) • Step 2: Compounds (50 nl) added with pin transfer device • Step 3: Fluor de Lys (2.5 ul) substrate added, incubate at RT, 30 minutes • Step 4: Developer (5 ul) solution is added (containing TSA), to stop reaction • Step 5: Plate Reader—data collection
The deacetylated fluorophore is excited with 360 nm light and the emitted light (460 nm) is detected on an automated fluorometric plate reader (Aquest, Molecular Devices).

For `CC(/C=C/C(=O)NO)=C\[C@@H](C)C(=O)c1ccc(N(C)C)cc1` [TSA, reference compound], the IC50 (commonly the midpoint of a concentration-inhibition curve) in the assay on HDAC [1] was 3 to 6 nM; in assay [2] it was under 1000 nM; in the assay with HDAC [3], under 1000 nM. Further, the “% Max. Inhibition (cellular)” value in assay [2] (maximum inhibition) is listed as 100%. Besides, the “% Max Inhibition (in vitro)” value in the assay with HDAC [3] is reported as 100%.

The compound `O=C1CSC(SCC(=O)c2ccc(Br)cc2)=N1` [Compound 33] showed an IC50 in assay [2] of over 10000 nM. Also, the Emax in assay [2] (maximum inhibition) was over 75%. In addition, in the assay on HDAC [3], the IC50 was under 1000 nM and the “% Max Inhibition (in vitro)” value is over 75%.

The compound `CC(=O)Nc1ccc(S(=O)(=O)Nc2ccc(C(=O)CSC3=NCCS3)cc2)cc1` [Compound 29, N-(4-{4-[2(4,5-Dihydro-thiazol-2-ylsulfanyl)-acetyl]-phenylsulfamoyl}-phenyl)-acetamide] gave an IC50 in assay [2] of 1000 to 10000 nM. Moreover, the Emax in assay [2] (maximum inhibition) was over 75%. In the assay with HDAC [3], the IC50 was 1000 to 10000 nM and the “% Max Inhibition (in vitro)” value is recorded as over 75%.

As for `COc1ccc(S(=O)(=O)Nc2ccc(C(=O)CSC3=NCCS3)cc2)cc1OC` [Compound 26, N-{4-[2-(4,5-Dihydro-thiazol-2-ylsulfanyl)-acetyl]-phenyl}-3,4-dimethoxy-benzenesulfonamide], the IC50 in assay [2] was under 1000 nM. Further, in assay [2] (maximum inhibition), the Emax was over 75%. Also, in the assay on HDAC [3], the IC50 is 1000 to 10000 nM and the “% Max Inhibition (in vitro)” value is listed as over 75%.
